# Biological target: T1, chymotrypsin-like activity of 20S proteasome (Bos taurus, UniProt Q2TBX6+Q32KL2)
# T1 construct: was purified to homogeneity from bovine brain according to published methods; from tissue; host or cells: bovine brain
# Assay: 20S proteasome chymotryptic activity inhibition assay (Suc-Leu-Leu-Val-Tyr-AMC cleavage)
# Assay type: biochemical
# Settings: 2 μg 20S proteasome from bovine brain, 50 μM fluorogenic substrate, 15 minutes at 37° C., pH7.5
# Outline: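 Bovine brain 20S proteasome (2 μg) with inhibitor at 0.1-100 μg/ml in 50 mM HEPES, 0.1% SDS, pH7.5. Reaction started with 50 μM Suc-LLVY-AMC, run 15 min at 37° C, stopped with pH 4.0 acetate; liberated AMC read by fluorescence (EX 370 nm, EM 430 nm).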
SMILES,IC50 [µM],IC50 for the inhibition of the chymotrypsin-like activity of 20S proteasome [µg/mL]
CC(C)CC(NC(=O)C(NC(=O)C(=O)Cc1c[nH]c2ccccc12)C(C)O)C(=O)NC(Cc1ccc(O)cc1)C(=O)O (stereo not drawn) [Compound 83],,>10
CC(C)CC(NC(=O)C(NC(=O)C(=O)Cc1c[nH]c2ccccc12)C(C)O)C(=O)NC(CO)C(=O)O (stereo not drawn) [Compound 93],,>10
CC(C)CC(NC(=O)C(CC(=O)O)NC(=O)C(=O)Cc1c[nH]c2ccccc12)C(=O)NC(C(=O)O)C(C)C (stereo not drawn) [Compound 43],,>10
CC(C)CC(NC(=O)C(C)NC(=O)C(=O)Cc1c[nH]c2ccccc12)C(=O)NC(Cc1ccccc1)C(=O)O (stereo not drawn) [Compound 109],,>10
CC(C)CC(NC(=O)C(CC(C)C)NC(=O)C(CC(C)C)NC(=O)C(=O)Cc1c[nH]c2ccccc12)C(=O)O (stereo not drawn) [Compound 22],,>10
CC(C)CC(NC(=O)C(Cc1ccc(O)cc1)NC(=O)C(=O)Cc1c[nH]c2ccccc12)C(=O)NC(C)C(=O)O (stereo not drawn) [Compound 76],,>10
CC(C)CC(NC(=O)C(=O)Cc1c[nH]c2ccccc12)C(=O)NC(CC(C)C)C(=O)NC(Cc1ccc(O)cc1)C(=O)O (stereo not drawn) [Compound 26],,>10
CC(C)CC(NC(=O)CCNC(=O)C(=O)Cc1c[nH]c2ccccc12)C(=O)NC(C)C(=O)O (stereo not drawn) [Compound 68],,>10
CC(C)CC(NC(=O)C(Cc1ccc(O)cc1)NC(=O)C(=O)Cc1c[nH]c2ccccc12)C(=O)NCC(=O)O (stereo not drawn) [Compound 61],,>10
CC(C)CC(NC(=O)C(CC1CCCCC1)NC(=O)C(=O)Cc1c[nH]c2ccccc12)C(=O)NCC(=O)O (stereo not drawn) [Compound 63],,>10
CC(C)CC(NC(=O)C(=O)Cc1ccccc1)C(=O)NC(CC(C)C)C(=O)NC(Cc1ccccc1)C(=O)O (stereo not drawn) [Compound 13],,>10
CC(C)CC(NC(=O)C(=O)Cc1ccccc1)C(=O)NC(CC(C)C)C(=O)NCC(=O)O (stereo not drawn) [Compound 6],,>10
CC(C)CC(NC(=O)C(CC(=O)O)NC(=O)C(=O)Cc1c[nH]c2ccccc12)C(=O)NC(CO)C(=O)O (stereo not drawn) [Compound 95],,>10
CC(C)CC(NC(=O)C(=O)Cc1c[nH]c2ccccc12)C(=O)NC(CC(C)C)C(=O)NC(Cc1ccc(O)cc1)C(=O)O (stereo not drawn) [Compound 36],,>10
CC(C)CC(NC(=O)C(CC(=O)O)NC(=O)OCc1c[nH]c2ccccc12)C(=O)NC(C)C(=O)O (stereo not drawn) [Compound 73],,>10
CC(C)CC(NC(=O)C(CC(C)C)NC(=O)C(=O)c1c[nH]c2ccccc12)C(=O)O (stereo not drawn) [Compound 10],,>10
CC(C)CC(NC(=O)CNC(=O)C(=O)Cc1c[nH]c2ccccc12)C(=O)NCC(=O)O (stereo not drawn) [Compound 52],,>10
CC(C)CC(NC(=O)C(NC(=O)C(=O)Cc1c[nH]c2ccccc12)C(C)O)C(=O)NC(C(=O)O)C(C)C (stereo not drawn) [Compound 41],,>10
CC(C)CC(NC(=O)C(=O)Cc1c[nH]c2ccccc12)C(=O)NC(CC(C)C)C(=O)NC(C)C(=O)O (stereo not drawn) [Compound 25],,>10
CCCC(NC(=O)C(=O)Cc1c[nH]c2ccccc12)C(=O)NC(CC(C)C)C(=O)NC(CO)C(=O)O (stereo not drawn) [Compound 97],,>10
CC(C)C[C@@H](NC(=O)[C@H](Cc1ccccc1)NC(=O)C(=O)Cc1c[nH]c2ccccc12)C(=O)N[C@H](C(=O)O)C(C)C [Compound 40],> 17.8,
CC(C)CC(NC(=O)CNC(=O)C(=O)Cc1c[nH]c2ccccc12)C(=O)NC(Cc1ccc(O)cc1)C(=O)O (stereo not drawn) [Compound 82],> 18.6,
CC(C)CC(NC(=O)C(Cc1cccnc1)NC(=O)C(=O)Cc1c[nH]c2ccccc12)C(=O)NC(C)C(=O)O (stereo not drawn) [Compound 79],,>10
CC(C)CC(NC(=O)C(=O)c1c[nH]c2ccccc12)C(=O)NC(CC(C)C)C(=O)NCC(=O)NCc1ccccc1 (stereo not drawn) [Compound 8],,>10
CC(C)CC(NC(=O)C(=O)Cc1c[nH]c2ccccc12)C(=O)NC(CC(C)C)C(=O)NC(C)C(=O)O (stereo not drawn) [Compound 35],,>10
CC(C)CC(NC(=O)C(CC1CCCCC1)NC(=O)C(=O)Cc1c[nH]c2ccccc12)C(=O)NC(C(=O)O)C(C)C (stereo not drawn) [Compound 48],,>10
CC(C)CC(NC(=O)C(NC(=O)C(=O)Cc1c[nH]c2ccccc12)C(C)C)C(=O)NC(CO)C(=O)O (stereo not drawn) [Compound 96],,>10
CC(C)CC(NC(=O)CNC(=O)C(=O)Cc1c[nH]c2ccccc12)C(=O)NC(CO)C(=O)O (stereo not drawn) [Compound 89],,>10
CC(C)CC(NC(=O)CNC(=O)C(=O)Cc1c[nH]c2ccccc12)C(=O)NC(C(=O)O)C(C)C (stereo not drawn) [Compound 37],,>10

# Now from value to molecule:
IC50 [µM],IC50 for the inhibition of the chymotrypsin-like activity of 20S proteasome [µg/mL],SMILES
> 18.9,,CCCCC(NC(=O)C(CC(C)C)NC(=O)C(CCC)NC(=O)C(=O)Cc1c[nH]c2ccccc12)C(=O)O (stereo not drawn) [Compound 127]
,>10,CC(C)CC(NC(=O)C(CC(=O)O)NC(=O)C(=O)Cc1c[nH]c2ccccc12)C(=O)NC(Cc1ccccc1)C(=O)O (stereo not drawn) [Compound 110]
,>10,CCCCC(NC(=O)C(CC(C)C)NC(=O)CCNC(=O)C(=O)Cc1c[nH]c2ccccc12)C(=O)O (stereo not drawn) [Compound 120]
,>10,CC(C)CC(NC(=O)C(CC1CCCCC1)NC(=O)C(=O)Cc1c[nH]c2ccccc12)C(=O)NC(C(=O)O)C(C)C (stereo not drawn) [Compound 172]
,>10,CC(C)CC(NC(=O)C(Cc1ccc(O)cc1)NC(=O)C(=O)Cc1c[nH]c2ccccc12)C(=O)NC(Cc1ccccc1)C(=O)O (stereo not drawn) [Compound 113]
,>10,CC(C)CC(NC(=O)C(Cc1cccnc1)NC(=O)C(=O)Cc1c[nH]c2ccccc12)C(=O)NC(CCC(=O)O)C(=O)O (stereo not drawn) [Compound 161]
,>10,CC(C)CC(NC(=O)C(Cc1cccnc1)NC(=O)C(=O)Cc1c[nH]c2ccccc12)C(=O)NC(C(=O)O)C(C)C (stereo not drawn) [Compound 173]
,>10,CC(C)CC(NC(=O)C(Cc1ccc(-c2ccccc2)cc1)NC(=O)C(=O)Cc1c[nH]c2ccccc12)C(=O)NC(CCC(=O)O)C(=O)O (stereo not drawn) [Compound 163]
,>10,CCCC(NC(=O)C(=O)Cc1c[nH]c2ccccc12)C(=O)NC(CC(C)C)C(=O)NC(C(=O)O)C(C)C (stereo not drawn) [Compound 201]
,>10,CCCCC(NC(=O)C(CC(C)C)NC(=O)C(Cc1ccc(O)cc1)NC(=O)C(=O)Cc1c[nH]c2ccccc12)C(=O)O (stereo not drawn) [Compound 128]
,>10,CC(C)CC(NC(=O)C(CC(=O)O)NC(=O)C(=O)Cc1c[nH]c2ccccc12)C(=O)NC(CCC(=O)O)C(=O)O (stereo not drawn) [Compound 155]
,>10,CC(C)CC(NC(=O)C(Cc1ccc(-c2ccccc2)cc1)NC(=O)C(=O)Cc1c[nH]c2ccccc12)C(=O)NC(CCCCN)C(=O)O (stereo not drawn) [Compound 193]
,>10,CC(C)C(NC(=O)C(NC(=O)C(Cc1ccc(O)cc1)NC(=O)C(=O)Cc1c[nH]c2ccccc12)C(C)C)C(=O)O (stereo not drawn) [Compound 202]
,>10,CC(C)CC(NC(=O)C(Cc1ccc2ccccc2c1)NC(=O)C(=O)Cc1c[nH]c2ccccc12)C(=O)NCC(=O)O (stereo not drawn) [Compound 170]
,3,CC(C)CC(NC(=O)C(Cc1ccc(-c2ccccc2)cc1)NC(=O)C(=O)Cc1c[nH]c2ccccc12)C(=O)NC(Cc1cccnc1)C(=O)O (stereo not drawn) [Compound 192]
,>10,CCCC(NC(=O)C(=O)Cc1c[nH]c2ccccc12)C(=O)NC(CC(C)C)C(=O)NC(CC(=O)O)C(=O)O (stereo not drawn) [Compound 142]
,>10,CC(C)CC(NC(=O)C(Cc1ccc(-c2ccccc2)cc1)NC(=O)C(=O)Cc1c[nH]c2ccccc12)C(=O)NC(Cc1ccc(-c2ccccc2)cc1)C(=O)O (stereo not drawn) [Compound 187]
> 16.4,,CC(C)CC(NC(=O)C(Cc1ccc(O)cc1)NC(=O)C(=O)Cc1c[nH]c2ccccc12)C(=O)NC(CCC(=O)O)C(=O)O (stereo not drawn) [Compound 158]
,5,CC(C)CC(NC(=O)C(Cc1ccc(-c2ccccc2)cc1)NC(=O)C(=O)Cc1c[nH]c2ccccc12)C(=O)NC(CC(N)=O)C(=O)O (stereo not drawn) [Compound 185]
